Several values for one entry are separate records, joined by “and”; a condition that tells them apart may be missing. Equal values may be shown once.
Columns and labels:
[1] = test system: human liver microsomes (HLMs); test: Ciprofol metabolism in HLM incubation system (incubation time, protein concentration, enzyme kinetics); type: in vitro ADME; conditions: for ciprofol concentration in incubation system (Incubation time) / ciprofol concentration in incubation system (Liver microsomal protein concentration): C1-C3 and Mean; for ciprofol concentration in incubation system (Liver microsomal protein concentration): ciprofol 40 μg·mL^-1, 60 min
Procedure: The volume of the incubation system was 200 μL and included 2 μL of substrate (ciprofol), 8 μL of rat liver microsomes (RLMs) or 6 μL of human liver microsomes (HLMs), 12 μL of NADPH generation system of solution (solution A 10 μL, solution B 2 μL), and the remaining volume was PBS. The incubation was performed in a water bath at a constant temperature of 37°C, and each sample was incubated three times in parallel.
(§1) The incubation system was removed from the water bath, and the reaction was terminated immediately by adding 800 μL of reaction termination solution (acetonitrile solution containing 5 μg·mL^-1 D6-ciprofol at 4°C). The mixture was vortexed for 2 min and centrifuged for 15 min, after which the supernatant was transferred to an autosampler vial for HPLC-MS/MS detection.
The concentrations of ciprofol and liver microsomal proteins in the RLM incubation system were set at 25 μg·mL^-1 and 0.8 mg·mL^-1, respectively, whereas those in the HLM incubation system were set at 40 μg·mL^-1 and 0.6 mg·mL^-1, respectively. Samples were obtained and assayed after 0, 10, 20, 30, 40, 60, 80, 100 and 120 min of incubation, and the optimum incubation time was determined according to the decreasing trend in ciprofol concentration.
The ciprofol concentrations in the RLM and HLM incubation systems were set at 25 and 40 μg·mL^-1, respectively. The liver microsomal protein concentrations were 0, 0.1, 0.2, 0.4, 0.6, 0.8 and 1.0 mg·mL^-1. The optimal protein concentration in the incubation system was determined based on the reduction of ciprofol (ΔC) after 40 min of incubation in RLMs and 60 min in HLMs.
The liver microsomal protein concentrations in the RLM incubation system and the HLM incubation system were 0.8 mg·mL^-1 and 0.6 mg·mL^-1, and the cells were incubated for 40 min and 60 min, respectively. The ciprofol concentrations in the incubation system were set at 4, 8, 16, 32, 48 and 80 μg·mL^-1, and the kinetic parameters of ciprofol metabolism were investigated based on ΔC values at different initial ciprofol concentrations (C0).
The substrate elimination method was employed in this study, and GraphPad Prism 8.0.2 software was used for statistical processing, including determination of the kinetic parameters of ciprofol metabolism and the IC50 values of psoralen and clopidogrel for ciprofol metabolism. The maximum velocity (Vmax), Michaelis constant (Km) and intrinsic clearance (CLint) were calculated using the […]: V=Vmax×[S]/Km+[S] CLint=Vmax/Km

[2] = Stability of ciprofol QC samples in liver microsome incubation system; type: physicochemical; conditions: liver microsomes; for ciprofol found after storage, Autosampler / ciprofol found after storage, Room Temperature: n = 5; for Stability: calculated concentration: single replicates
Procedure: as §1
To investigate the stability of ciprofol under a variety of conditions, three groups of liver microsome QC sample solutions were prepared, and one group was immediately processed and analysed as described in Section 2.4.2. Another group was stored at room temperature for 8 hours before treatment and assessment. The other group was treated and placed in the autosampler (4°C) for 24 h and subsequently analysed. In addition, simulated plasma QC samples were prepared in five groups: one group was processed and measured immediately as described in Section 2.4.3, and another group was placed in the autosampler for 24 h after treatment. The other three groups were placed at room temperature for 8 h, stored at -40°C for 30 d, frozen and thawed three times, respectively, and then processed and detected as described in Section 2.4.3. All the above samples were tested in parallel in five batches.

[3] = clinical trials; cited from earlier work
[4] = Autosampler for 24 h, QC level H
[5] = Autosampler for 24 h, QC level L
[6] = Autosampler for 24 h, QC level M
[7] = Room - Temperature for 8 h, QC level H
[8] = Room - Temperature for 8 h, QC level L
[9] = Room - Temperature for 8 h, QC level M

CC(C)c1cccc([C@H](C)C2CC2)c1O [ciprofol]
ciprofol concentration in incubation system (Incubation time) ([1]; HLMs 0.6 mg·mL^-1, ciprofol 40 μg·mL^-1, T 20 min): 31.73 µg/mL and 29.56 µg/mL and 32.69 µg/mL and 31.33 µg/mL | ciprofol concentration in incubation system (Incubation time) ([1]; HLMs 0.6 mg·mL^-1, ciprofol 40 μg·mL^-1, T 30 min): 28.14 µg/mL and 24.88 µg/mL and 28.27 µg/mL and 27.10 µg/mL | ciprofol concentration in incubation system (Incubation time) ([1]; HLMs 0.6 mg·mL^-1, ciprofol 40 μg·mL^-1, T 40 min): 26.01 µg/mL and 21.75 µg/mL and 25.61 µg/mL and 24.46 µg/mL | ciprofol concentration in incubation system (Incubation time) ([1]; HLMs 0.6 mg·mL^-1, ciprofol 40 μg·mL^-1, T 60 min): 21.50 µg/mL and 18.33 µg/mL and 20.08 µg/mL and 19.97 µg/mL | ciprofol concentration in incubation system (Incubation time) ([1]; HLMs 0.6 mg·mL^-1, ciprofol 40 μg·mL^-1, T 80 min): 19.59 µg/mL and 17.50 µg/mL and 18.53 µg/mL and 18.54 µg/mL | ciprofol concentration in incubation system (Incubation time) ([1]; HLMs 0.6 mg·mL^-1, ciprofol 40 μg·mL^-1, T 100 min): 18.42 µg/mL and 15.96 µg/mL and 17.83 µg/mL and 17.40 µg/mL | ciprofol concentration in incubation system (Incubation time) ([1]; HLMs 0.6 mg·mL^-1, ciprofol 40 μg·mL^-1, T 120 min): 17.25 µg/mL and 14.82 µg/mL and 15.95 µg/mL and 16.01 µg/mL | ciprofol concentration in incubation system (Liver microsomal protein concentration) ([1]; HLMs, Cprotein 0 mg/mL): 39.87 µg/mL and 40.23 µg/mL and 38.51 µg/mL and 39.54 µg/mL | ciprofol concentration in incubation system (Liver microsomal protein concentration) ([1]; HLMs, Cprotein 0.1 mg/mL): 35.11 µg/mL and 36.09 µg/mL and 35.34 µg/mL and 35.51 µg/mL | ciprofol concentration in incubation system (Liver microsomal protein concentration) ([1]; HLMs, Cprotein 0.2 mg/mL): 30.78 µg/mL and 30.52 µg/mL and 29.4 µg/mL and 30.23 µg/mL | ciprofol concentration in incubation system (Liver microsomal protein concentration) ([1]; HLMs, Cprotein 0.4 mg/mL): 24.5 µg/mL and 24.31 µg/mL and 22.53 µg/mL and 23.78 µg/mL | ciprofol concentration in incubation system (Liver microsomal protein concentration) ([1]; HLMs, Cprotein 0.6 mg/mL): 20.49 µg/mL and 20.86 µg/mL and 19.64 µg/mL and 20.33 µg/mL | ciprofol concentration in incubation system (Liver microsomal protein concentration) ([1]; HLMs, Cprotein 0.8 mg/mL): 19.89 µg/mL and 20.13 µg/mL and 19.02 µg/mL and 19.68 µg/mL | ciprofol concentration in incubation system (Liver microsomal protein concentration) ([1]; HLMs, Cprotein 1 mg/mL): 19.11 µg/mL and 19.68 µg/mL and 20.54 µg/mL and 19.78 µg/mL | CLint of ciprofol ([1]; HLMs, CLint=Vmax/Km): 1.06 mL·min^-1·mg protein^-1 | ciprofol found after storage, Autosampler ([2]; QC 2.5 μg·mL^-1, autosampler (4°C) for 24 h after treatment): 2.54 ± 0.11 µg/mL | ciprofol found after storage, Room Temperature ([2]; QC 2.5 μg·mL^-1, room temperature for 8 h): 2.53 ± 0.19 µg/mL | ciprofol found after storage, Autosampler ([2]; QC 10 μg·mL^-1, autosampler (4°C) for 24 h after treatment): 9.82 ± 0.44 µg/mL | ciprofol found after storage, Room Temperature ([2]; QC 10 μg·mL^-1, room temperature for 8 h): 10.14 ± 0.62 µg/mL | ciprofol found after storage, Autosampler ([2]; QC 75 μg·mL^-1, autosampler (4°C) for 24 h after treatment): 72.07 ± 4.83 µg/mL | ciprofol found after storage, Room Temperature ([2]; QC 75 μg·mL^-1, room temperature for 8 h): 70.43 ± 3.12 µg/mL | Stability: mean calculated concentration [2, 4]: 72.07 µg/mL | Stability: calculated concentration [2, 4]: 64.85 µg/mL and 72.55 µg/mL and 71.79 µg/mL and 72.70 µg/mL and 78.45 µg/mL | Stability: mean calculated concentration [2, 5]: 2.54 µg/mL | Stability: calculated concentration [2, 5]: 2.73 µg/mL and 2.56 µg/mL and 2.49 µg/mL and 2.50 µg/mL and 2.43 µg/mL | Stability: mean calculated concentration [2, 6]: 9.82 µg/mL | Stability: calculated concentration [2, 6]: 9.08 µg/mL and 9.88 µg/mL and 10.27 µg/mL and 9.89 µg/mL and 9.96 µg/mL | Stability: mean calculated concentration [2, 7]: 70.43 µg/mL | Stability: calculated concentration [2, 7]: 71.38 µg/mL and 72.99 µg/mL and 69.04 µg/mL and 65.67 µg/mL and 73.05 µg/mL | Stability: mean calculated concentration [2, 8]: 2.53 µg/mL | Stability: calculated concentration [2, 8]: 2.63 µg/mL and 2.49 µg/mL and 2.51 µg/mL and 2.26 µg/mL and 2.77 µg/mL | Stability: mean calculated concentration [2, 9]: 10.15 µg/mL | Stability: calculated concentration [2, 9]: 9.80 µg/mL and 9.76 µg/mL and 10.83 µg/mL and 10.81 µg/mL and 9.53 µg/mL | incidence of pain on injection relative to that caused by propofol [3]: 1/10
